Measured values reported in patent US5455351A, “Retroviral protease inhibiting piperazine compounds” (Abbott Laboratories, priority 1993, dated 1995).

What was measured:
[1] = test system: HIV-13B; assay: Antiviral activity: inhibition of the cytopathic effect of HIV in MT4 cells; type: cell-based; conditions: Human immunodeficiency virus 1; HIV-13B in MT4 cells; read-out: IC50 (concentration of compound that gives 50% inhibition of the cytopathic effect of HIV)
Description: (§1) The anti-HIV activity of the compounds of the invention can be determined in MT4 cells according to the procedure of Kempf, et. al. (Antimicrob. Agents Chemother. 1991, 35, 2209). The IC50 is the concentration of compound that gives 50% inhibition of the cytopathic effect of HIV. The LC50 is the concentration of compound at which 50% of the cells remain viable.

[2] = Viability (LC50) of MT4 cells; type: cell-based; conditions: human, read-out: LC50 (concentration of compound at which 50% of the cells remain viable)
Description: as §1

[3] = target: T1, HIV-1 protease (HIV-1 M:B_HXB2R, UniProt P04585); assay: Fluorogenic Assay for Screening Inhibitors of HIV Protease; type: biochemical; conditions: inhibitor concentration 0.5 nanomolar; pH 4.5; 30° C.; 1.3 μM fluorogenic substrate; read-out: Percent Inhibition
T1 construct: fluorogenic DABCYL/EDANS peptide substrate
Protocol: The inhibitory potency of the compounds of the invention can be determined by the following method.
A compound of the invention is dissolved in DMSO and a small aliquot further diluted with DMSO to 100 times the final concentration desired for testing. The reaction is carried out in a 6×50 mm tube in a total volume of 300 microliters. The final concentrations of the components in the reaction buffer are: 125 mM sodium acetate, 1 M sodium chloride, 5 mM dithiothreitol, 0.5 mg/ml bovine serum albumin, 1.3 μM fluorogenic substrate, 2% (v/v) dimethylsulfoxide, pH 4.5. After addition of inhibitor, the reaction mixture is placed in the fluorometer cell holder and incubated at 30° C. for several minutes. The reaction is initiated by the addition of a small aliquot of cold HIV protease. The fluorescence intensity (excitation 340 nm, emmision 490 nM) is recorded as a function of time. The reaction rate is determined for the first six to eight minutes. The observed rate is directly proportional to the moles of substrate cleaved per unit time. The percent inhibition is 100 X (1 -(rate in presence of inhibitor)/(rate in absence of inhibitor)).
Fluorogenic substrate: DabcyI-Ser-GIn-Asn-Tyr-Pro-Ile-VaI-GIn-EDANS wherein DABCYL=4-(4-dimethylamino-phenyl)azobenzoic acid and EDANS=5-((2-aminoethyl)amino)-naphthalene-1-sulfonic acid.

CC(C)(C)NC(=O)[C@@H]1CN(Cc2cncs2)CCN1C[C@@H](O)C[C@@H](Cc1ccccc1)C(=O)N[C@H]1c2ccccc2C[C@H]1O [Example 1R, (1S,2R,2'R,4'S,2"S)-1-((2-Benzyl-5-(((2-(t-butyl)amino)carbonyl)-4-((thiazol-5-yl)methyl)piperazin-1-yl)-4-hydroxypentanoyl)amino)indan-2-ol]
IC50 [1]: 16 nM
CC50 [2]: > 100000 nM
inhibition at 0.0005 µM [3]: 61%
